Laboratory results reported in US10265331B2, “Prevention or treatment agent for hepatic fibrosis” (priority 2012, dated 2019).

Tests used:
CBP/β-catenin = CBP/β-catenin (Homo sapiens, UniProt Q92793); conditions: reporter assay of WO 2009/148192; cited from earlier work
[1] = system: chronic hepatitis C model mouse (Cre/loxP/HCV-MxCre Tg mouse); assay: Treatment effect on hepatic fibrosis by histological staining of liver of model mouse; assay type: in vivo
Method: The expression of Cre in the liver of these mice was induced by intraperitoneal injection of polyinosinic-polycytidylic acid [Poly(I:C)] (purchased from GE Healthcare UK Ltd. (Buckinghamshire, England)). That is, 300 μL of poly(I:C) solution (1 mg/mL phosphate buffered saline [PBS]) was intraperitoneally injected, after lapse of 2 months from birth, […] 3 times at 48 hr intervals. HCV gene expression can be induced in almost all hepatocytes by performing this poly(I:C) administration operation once.
A CBP/β-catenin inhibitor was intraperitoneally administered to the CN2-29^(+/−)/MxCre^(+/−) mouse obtained in Example 1, and whether the CBP/β-catenin inhibitor has a treatment effect on hepatic fibrosis was examined by histological staining of the hepatic tissues collected from the model mouse.
A CBP/β-catenin inhibitor was dissolved in commercially available PBS (pH 7.6), and the pH was adjusted again to 7.6 with an aqueous sodium hydroxide solution to give a 40 mg/ml CBP/β-catenin inhibitor solution. This solution (250 μl) was filled in an osmotic pressure pump (ALZET mini-osmotic pump model 2006) and embedded subcutaneously in the back of mouse, whereby a CBP/β-catenin inhibitor was administered at 0.15 μl/hr for 42 days in a sustained manner. For the control group, commercially available PBS (pH7.6) was similarly filled in an osmotic pressure pump and administered as a vehicle by embedding same subcutaneously in the back of mouse.
Autopsy was performed on day 42 from the administration of the CBP/β-catenin inhibitory compound of (1), the liver was removed and histologically searched.
As for staining, the whole image of the tissue was stained and observed by hematoxylin-eosin staining (HE staining), and fiber was stained and observed by silver staining and Azan staining.
A tissue sample was fixed with 4% para-formaldehyde in PBS, embedded in paraffin and sliced (thickness 4 μm). The obtained section was subjected to hematoxylin-eosin staining (HE), silver staining and Azan staining.
Hematoxylin-eosin staining was performed according to the method described in a handbook of histopathological staining (Kiyoyuki Takahashi, Igaku-Shoin).
Silver staining was performed according to the method described in a handbook of histopathological staining (Kiyoyuki Takahashi, Igaku-Shoin).
Azan staining was performed according to the method described in a handbook of histopathological staining (Kiyoyuki Takahashi, Igaku-Shoin).

CBP/β-catenin, sequence (Q92793 whole entry): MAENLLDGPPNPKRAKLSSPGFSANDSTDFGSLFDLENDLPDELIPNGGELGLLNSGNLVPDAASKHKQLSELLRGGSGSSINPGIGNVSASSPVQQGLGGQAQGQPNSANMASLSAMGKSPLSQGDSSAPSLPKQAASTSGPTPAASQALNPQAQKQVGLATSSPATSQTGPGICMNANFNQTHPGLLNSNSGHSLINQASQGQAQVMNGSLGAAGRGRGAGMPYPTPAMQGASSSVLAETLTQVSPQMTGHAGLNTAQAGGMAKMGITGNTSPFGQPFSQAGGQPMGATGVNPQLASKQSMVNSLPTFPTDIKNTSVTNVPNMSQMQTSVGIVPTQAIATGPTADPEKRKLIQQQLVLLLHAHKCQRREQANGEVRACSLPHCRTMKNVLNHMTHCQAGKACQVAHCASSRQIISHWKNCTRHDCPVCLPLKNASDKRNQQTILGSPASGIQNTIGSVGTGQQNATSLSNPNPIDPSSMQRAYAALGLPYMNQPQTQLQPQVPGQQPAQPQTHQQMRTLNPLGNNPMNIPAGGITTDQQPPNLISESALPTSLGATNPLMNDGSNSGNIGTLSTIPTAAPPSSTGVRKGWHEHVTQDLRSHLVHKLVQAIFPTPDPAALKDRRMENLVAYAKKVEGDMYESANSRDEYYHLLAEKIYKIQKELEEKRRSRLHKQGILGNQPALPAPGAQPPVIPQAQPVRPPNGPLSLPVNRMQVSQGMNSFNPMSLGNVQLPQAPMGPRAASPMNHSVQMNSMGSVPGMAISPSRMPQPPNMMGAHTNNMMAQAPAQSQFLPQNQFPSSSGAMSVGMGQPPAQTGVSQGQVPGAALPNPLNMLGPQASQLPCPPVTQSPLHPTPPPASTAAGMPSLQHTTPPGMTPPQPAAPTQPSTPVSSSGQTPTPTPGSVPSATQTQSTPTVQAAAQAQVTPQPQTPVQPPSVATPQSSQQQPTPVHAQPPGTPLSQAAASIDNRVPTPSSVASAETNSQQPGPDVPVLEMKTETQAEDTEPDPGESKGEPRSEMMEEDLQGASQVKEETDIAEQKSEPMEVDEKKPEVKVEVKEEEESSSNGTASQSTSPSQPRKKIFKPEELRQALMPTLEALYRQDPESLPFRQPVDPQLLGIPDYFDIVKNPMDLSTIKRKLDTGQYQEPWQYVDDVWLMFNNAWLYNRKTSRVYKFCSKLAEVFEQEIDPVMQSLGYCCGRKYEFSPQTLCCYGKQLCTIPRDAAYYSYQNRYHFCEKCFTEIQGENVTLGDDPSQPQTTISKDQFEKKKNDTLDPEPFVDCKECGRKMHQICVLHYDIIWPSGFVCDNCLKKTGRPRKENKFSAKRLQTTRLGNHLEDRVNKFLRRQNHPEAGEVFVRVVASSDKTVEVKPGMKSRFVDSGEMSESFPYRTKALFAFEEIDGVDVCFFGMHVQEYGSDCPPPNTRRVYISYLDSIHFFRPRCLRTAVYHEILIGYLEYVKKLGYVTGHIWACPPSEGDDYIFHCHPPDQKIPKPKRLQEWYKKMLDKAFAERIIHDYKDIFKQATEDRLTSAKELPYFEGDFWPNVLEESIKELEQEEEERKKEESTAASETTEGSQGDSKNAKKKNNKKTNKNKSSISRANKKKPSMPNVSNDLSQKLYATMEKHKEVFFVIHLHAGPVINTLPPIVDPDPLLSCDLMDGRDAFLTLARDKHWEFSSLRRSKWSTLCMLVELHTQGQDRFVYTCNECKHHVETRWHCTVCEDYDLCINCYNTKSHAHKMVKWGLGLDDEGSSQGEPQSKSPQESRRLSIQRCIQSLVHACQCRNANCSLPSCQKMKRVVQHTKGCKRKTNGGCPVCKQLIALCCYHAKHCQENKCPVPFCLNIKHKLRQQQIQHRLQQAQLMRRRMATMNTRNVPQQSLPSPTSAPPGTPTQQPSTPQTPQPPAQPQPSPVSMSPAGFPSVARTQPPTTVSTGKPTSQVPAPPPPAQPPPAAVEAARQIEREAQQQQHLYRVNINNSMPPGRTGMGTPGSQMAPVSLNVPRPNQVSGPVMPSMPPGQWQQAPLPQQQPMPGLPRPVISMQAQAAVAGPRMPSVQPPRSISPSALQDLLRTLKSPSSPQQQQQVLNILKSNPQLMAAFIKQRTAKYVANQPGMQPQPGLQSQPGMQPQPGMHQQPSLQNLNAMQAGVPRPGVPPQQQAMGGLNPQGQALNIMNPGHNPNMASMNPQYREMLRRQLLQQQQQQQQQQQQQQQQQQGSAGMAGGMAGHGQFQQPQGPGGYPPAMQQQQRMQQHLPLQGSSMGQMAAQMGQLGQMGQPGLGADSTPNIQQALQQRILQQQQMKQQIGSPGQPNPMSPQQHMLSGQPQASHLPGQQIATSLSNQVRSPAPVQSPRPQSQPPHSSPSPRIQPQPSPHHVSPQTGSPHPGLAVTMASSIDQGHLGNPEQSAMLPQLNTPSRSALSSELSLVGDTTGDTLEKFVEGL

C[C@H]1C2N(C(=O)CN(C)N2C(=O)NCc2ccccc2)[C@@H](Cc2ccc(OP(=O)(O)O)cc2)C(=O)N1Cc1cccc2cccnc12 (stereo partly drawn) [CBP/β-catenin inhibitory compound, 4-(((6S,9S)-1-(benzylcarbamoyl)-2,9-dimethyl-4,7-dioxo-8-(quinolin-8-ylmethyl)octahydro-1H-pyrazino[2,1-c][1,2,4]triazin-6-yl)methyl)phenyl dihydrogen phosphate]
CBP/β-catenin inhibitory action (CBP/β-catenin): confirmed | hepatic lobule structure (defibrosing action) ([1]; CN2-29(+/-)/MxCre(+/-) mouse, 40 mg/ml solution by subcutaneous osmotic pump, 0.15 μl/hr for 42 days, HE, silver and Azan staining (FIG. 2-4)): improved hepatic lobule structure | hepatocyte cord structure of liver tissue, hematoxylin-eosin staining ([1]; administration for 42 days, FIG. 2): normalized to take a cord-like form | staining of reticular fiber, silver staining ([1]; administration for 42 days, FIG. 3): weakened and normalized | staining of collagenous fibers, Azan staining ([1]; administration for 42 days, FIG. 4): normalized
